Results reported in patent US11234437B2 (priority 2017, dated 2022).

How the values were obtained:
Gaeumannomyces graminis = Gaeumannomyces graminis / liquid culture (take-all of cereals); format: cell-based; conditions: compared to untreated control
Method: (§1) Mycelial fragments of the fungus from cryogenic storage were directly mixed into nutrient broth (PDB potato dextrose broth). After placing a (DMSO) solution of test compound into a microtiter plate (96-well format), the nutrient broth containing the fungal spores is added. The test plates are incubated at 24° C. and the inhibition of growth is determined photometrically 4-5 days after application.

[1] = tested on: Monographella nivalis (Microdochium nivale); assay: Monographella nivalis (Microdochium nivale) / liquid culture (foot rot cereals); format: cell-based; conditions: compared to untreated control
Method: Monographella nivalis (Microdochium nivale)/Liquid Culture (Foot Rot Cereals)
as §1, with “Conidia” for “Mycelial fragments”, “are” for “were”

[2] = tested on: Magnaporthe grisea (Pyricularia oryzae); assay: microbe, parasite or virus in culture; format: cell-based; conditions: read-out: control of Magnaporthe grisea
[3] = tested on: Gibberella zeae (Fusarium graminearum); assay: whole plant or invertebrate; format: in vivo; conditions: in Triticum aestivum, read-out: control of Gibberella zeae

| Structure (SMILES) | inhibition of growth at 20 ppm (Gaeumannomyces graminis) [%] | inhibition of growth at 20 ppm [1] [%] | inhibition of growth at 20 ppm [2] [%] | pest or weed control at 200 ppm [3] [%] | melting point [°C] |
| --- | --- | --- | --- | --- | --- |
| CC(C)C[C@@](C)(Cc1ccccc1)NC(=O)c1cnc2c(F)cccc2c1 [Compound F-1, N-[(1S)-1-benzyl-1,3-dimethyl-butyl]-8-fluoro-quinoline-3-carboxamide] | ≥ 80 | ≥ 80 | ≥ 80 | – | – |
| CC(C)C[C@](C)(Cc1ccccc1)NC(=O)c1cnc2c(F)cccc2c1 [Compound F-2, N-[(1R)-1-benzyl-1,3-dimethyl-butyl]-8-fluoro-quinoline-3-carboxamide] | ≥ 80 | ≥ 80 | ≥ 80 | – | – |
| CC(C)C[C@@](C)(Cc1ccccc1)NC(=O)c1cnc2ccccc2c1 [Compound F-3, N-[(1S)-1-benzyl-1,3-dimethyl-butyl]quinoline-3-carboxamide] | ≥ 80 | ≥ 80 | ≥ 80 | – | – |
| CC(C)C[C@](C)(Cc1ccccc1)NC(=O)c1cnc2ccccc2c1 [Compound F-4, N-[(1R)-1-benzyl-1,3-dimethyl-butyl]quinoline-3-carboxamide] | ≥ 80 | – | ≥ 80 | – | – |
| C=C(C)C[C@](C)(Cc1ccccc1)NC(=O)c1cnc2c(F)cccc2c1 [Compound F-5, N-[(1R)-1-benzyl-1,3-dimethyl-but-3-enyl]-8-fluoro-quinoline-3-carboxamide] | – | ≥ 80 | ≥ 80 | ≥ 80 | – |
| C=C(C)C[C@@](C)(Cc1ccccc1)NC(=O)c1cnc2c(F)cccc2c1 [Compound F-6, N-[(1S)-1-benzyl-1,3-dimethyl-but-3-enyl]-8-fluoro-quinoline-3-carboxamide] | ≥ 80 | ≥ 80 | – | ≥ 80 | – |
| C[C@](Cc1ccccc1)(CC(F)(F)F)NC(=O)c1cnc2c(F)cccc2c1 [Compound F-7, N-[(1S)-1-benzyl-3,3,3-trifluoro-1-methyl-propyl]-8-fluoro-quinoline-3-carboxamide] | – | – | ≥ 80 | ≥ 80 | – |
| C[C@@](Cc1ccccc1)(CC(F)(F)F)NC(=O)c1cnc2c(F)cccc2c1 [Compound F-8, N-[(1R)-1-benzyl-3,3,3-trifluoro-1-methyl-propyl]-8-fluoro-quinoline-3-carboxamide] | – | – | ≥ 80 | – | – |
| CC(C)(C)C[C@](C)(Cc1ccccc1)NC(=O)c1cnc2c(F)cccc2c1 [Compound F-10, N-[(1R)-1-benzyl-1,3,3-trimethyl-butyl]-8-fluoro-quinoline-3-carboxamide] | ≥ 80 | – | – | ≥ 80 | – |
| C=C(C)C[C@](C)(Cc1ccccc1)NC(=O)c1cnc2c(F)c(F)ccc2c1 [Compound F-11, N-[(1R)-1-benzyl-1,3-dimethyl-but-3-enyl]-7,8-difluoro-quinoline-3-carboxamide] | – | – | ≥ 80 | ≥ 80 | – |
| C=C(C)C[C@@](C)(Cc1ccccc1)NC(=O)c1cnc2c(F)c(F)ccc2c1 [Compound F-12, N-[(1S)-1-benzyl-1,3-dimethyl-but-3-enyl]-7,8-difluoro-quinoline-3-carboxamide] | – | ≥ 80 | ≥ 80 | – | – |
| CC(C)C[C@](C)(Cc1ccccc1)NC(=O)c1cnc2c(F)c(F)ccc2c1 [Compound F-14, N-[(1R)-1-benzyl-1,3-dimethyl-butyl]-7,8-difluoro-quinoline-3-carboxamide] | – | – | ≥ 80 | – | – |
| CC(C)(F)C[C@@](C)(Cc1ccccc1)NC(=O)c1cnc2c(F)cccc2c1 [Compound F-15, N-[(1R)-1-benzyl-3-fluoro-1,3-dimethyl-butyl]-8-fluoro-quinoline-3-carboxamide] | – | ≥ 80 | ≥ 80 | ≥ 80 | – |
| CC(C)(F)C[C@](C)(Cc1ccccc1)NC(=O)c1cnc2c(F)cccc2c1 [Compound F-16, N-[(1S)-1-benzyl-3-fluoro-1,3-dimethyl-butyl]-8-fluoro-quinoline-3-carboxamide] | – | ≥ 80 | ≥ 80 | ≥ 80 | – |
| Cc1cccc2cc(C(=O)N[C@](C)(Cc3ccccc3)CC(F)(F)F)cnc12 [Compound F-18, N-[(1R)-1-benzyl-3,3,3-trifluoro-1-methyl-propyl]-8-methyl-quinoline-3-carboxamide] | – | – | ≥ 80 | – | – |
| C[C@@](Cc1ccccc1)(CC(F)(F)F)NC(=O)c1cnc2c(Cl)cccc2c1 [Compound F-20, N-[(1R)-1-benzyl-3,3,3-trifluoro-1-methyl-propyl]-8-chloro-quinoline-3-carboxamide] | – | – | ≥ 80 | – | – |
| C[C@@](Cc1ccccc1)(CC(F)(F)F)NC(=O)c1cnc2c(F)c(F)ccc2c1 [Compound F-22, N-[(1R)-1-benzyl-3,3,3-trifluoro-1-methyl-propyl]-7,8-difluoro-quinoline-3-carboxamide] | – | – | ≥ 80 | ≥ 80 | – |
| CC(F)(F)C[C@@](C)(Cc1ccccc1)NC(=O)c1cnc2c(F)cccc2c1 [Compound F-31, N-[(1R)-1-benzyl-3,3-difluoro-1-methyl-butyl]-8-fluoro-quinoline-3-carboxamide] | – | ≥ 80 | ≥ 80 | ≥ 80 | – |
| Cc1cccc2cc(C(=O)NC(C)(Cc3ccccc3)CC(F)(F)F)cnc12 (stereo not shown) [X.004, N-(1-benzyl-3,3,3-trifluoro-1-methyl-propyl)-8-methyl-quinoline-3-carboxamide] | – | ≥ 80 | ≥ 80 | ≥ 80 | 120 to 123 |
| CC(Cc1ccccc1)(CC(F)(F)F)NC(=O)c1cnc2c(Cl)cccc2c1 (stereo not shown) [X.005, N-(1-benzyl-3,3,3-trifluoro-1-methyl-propyl)-8-chloro-quinoline-3-carboxamide] | – | ≥ 80 | ≥ 80 | ≥ 80 | 141 to 144 |
| C=C(C)CC(C)(Cc1ccccc1)NC(=O)c1cnc2c(F)c(F)ccc2c1 (stereo not shown) [X.010, N-(1-benzyl-1,3-dimethyl-but-3-enyl)-7,8-difluoro-quinoline-3-carboxamide] | – | ≥ 80 | ≥ 80 | ≥ 80 | 94 to 96 |
| CC(F)(F)CC(C)(Cc1ccccc1)NC(=O)c1cnc2c(F)cccc2c1 (stereo not shown) [X.014, N-(1-benzyl-3,3-difluoro-1-methyl-butyl)-8-fluoro-quinoline-3-carboxamide] | – | – | ≥ 80 | ≥ 80 | – |
| CC(C)(F)CC(C)(Cc1ccccc1)NC(=O)c1cnc2c(F)cccc2c1 (stereo not shown) [X.015, N-(1-benzyl-3-fluoro-1,3-dimethyl-butyl)-8-fluoro-quinoline-3-carboxamide] | – | ≥ 80 | ≥ 80 | ≥ 80 | – |
| CC(C)(C)CC(C)(Cc1ccccc1)NC(=O)c1cnc2c(F)cccc2c1 (stereo not shown) [X.016, N-(1-benzyl-1,3,3-trimethyl-butyl)-8-fluoro-quinoline-3-carboxamide] | – | ≥ 80 | ≥ 80 | ≥ 80 | 48 to 50 |
